Experimental data taken from article PMC3205048, “Differential Modulation of Beta-Adrenergic Receptor Signaling by Trace Amine-Associated Receptor 1 Agonists” (PLoS ONE, 2011).
Where two headings read alike, the source gives them in different places.

Assays:
Format in all cases: cell-based
hADRB2 = target: T1, hADRB2 (Homo sapiens, UniProt P07550); test: cAMP accumulation (AlphaScreen) in HEK293 cells transiently transfected with hADRB2, ligand alone or co-stimulation with ISOP; conditions: for agonistic effect of the ligand alone: ligand alone 6.7 nM to 6700 nM, 45 min; for effect on ISOP stimulation: pre-incubation 6.7 nM to 6700 nM 15 min, then ISOP 1 nM to 10000 nM 30 min
T1 construct: HA tag (N); expressed in transfected cells; host or cells: HEK293 (ATCC-LGC), transient transfection, vector pcDps
T1 sequence (P07550 whole entry): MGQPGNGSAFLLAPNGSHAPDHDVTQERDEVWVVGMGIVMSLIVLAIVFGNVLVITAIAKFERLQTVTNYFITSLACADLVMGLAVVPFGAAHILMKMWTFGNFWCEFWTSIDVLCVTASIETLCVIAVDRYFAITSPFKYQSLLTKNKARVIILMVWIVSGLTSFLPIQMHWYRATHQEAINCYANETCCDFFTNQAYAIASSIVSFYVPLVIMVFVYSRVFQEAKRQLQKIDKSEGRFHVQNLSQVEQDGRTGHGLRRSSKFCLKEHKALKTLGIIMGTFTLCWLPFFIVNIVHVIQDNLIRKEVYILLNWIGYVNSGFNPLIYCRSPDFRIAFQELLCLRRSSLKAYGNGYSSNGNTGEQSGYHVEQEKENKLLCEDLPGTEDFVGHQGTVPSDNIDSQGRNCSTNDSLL
Protocol: (§1) We functionally tested the effects of particular trace amines at the human ADRB1 and ADRB2 (figure 3). […] Controls were stimulated with each trace amine and ISOP alone, respectively.
(§2) Figure 3 Characterization of hADRB1 and hADRB2 after trace amine challenge. HEK293 cells were transiently transfected with hADRB1 and hADRB2, respectively. […] As controls hADRB1 and hADRB2 were incubated with each substance alone with the same concentration for 45 minutes. Three to four independent experiments measured in duplex or tripletts mean ± SEM are depicted here. […] Maximal values were statistically analyzed using paired one-tail t-test compared to ISOP maximal stimulation. A-B) hADRB1 and hADRB2 were stimulated with ISOP and TYR alone and with both substances simultaneously.
Human β2-adrenergic receptor (ADRB2, NM_000024.5) was subcloned via EcoRI and SpeI with an N-terminal (HA)-tag as well.
Human embryonic kidney cells (HEK293) were cultured in Minimum Essential Medium (MEM) Earle's (Biochrom AG) supplemented with 10% FBS (PAA Laboratories GmbH), 100 U/ml penicillin, and 100 µg/ml streptomycin (Biochrom AG) and 2 mM L-glutamine (Invitrogen) at 37°C with 5% CO2. 48 well plates were coated with Poly-L-Lysine (Biochrom) and HEK293 cells were seeded with 37,500 cells per well. Transient transfection in triplicates with 84 ng DNA/well using metafectene according to manufactures instructions (Biontex, Munich, Germany) was performed 28 hours later. 40 hours after transfection cells were pre-incubated for 5 minutes with stimulation buffer containing of MEM Earle's media and 1 mM 3-isobutyl-1-methylxanthine (IBMX, Sigma). This stimulation buffer was used for all further steps. […] Ligands were all purchased from Sigma, Munich. Controls were incubated with tyramine, β-phenylethylamine, octopamine or isoprenaline for 45 minutes. All reactions were performed at 37°C with 5% CO2 saturated air and stopped by aspirating medium. Cells were lysed at 4°C for 2 h on a shaking platform with cell lysis buffer containing […] HEPES, 0.1% BSA, 0.3% Tween20 and 1 mM IBMX.
(§3) The competitive cyclic adenosine-monophosphate (cAMP) assay via Alphascreen (Perkin Elmer Life Science, Inc., Boston, MA) was carried out according to the manufacturers' protocol. Briefly, 5 µl of each sample were transferred to a 384 well plate. Acceptor beads were diluted in 1X HBSS with 1M HEPES, 0.1% BSA, pH 7.4 and incubated for 30 minutes at room temperature. Then donor beads and 50 µM biotinylated cAMP diluted in the same way were added and incubated for an hour at room temperature. Measurement of the plate was performed using Berthold Microplate Reader (Berthold Technologies GmbH & Co. KG). Results are expressed in fold over mock (unstimulated empty vector).

hTAAR1 = target: T2, hTAAR1 (Homo sapiens, UniProt Q96RJ0); test: cAMP accumulation (AlphaScreen) in HEK293 cells transiently transfected with hTAAR1
T2 construct: Full length human TAAR1 (hTAAR1, NM_138327.1) was subcloned; first 20 amino acids of bovine rhodopsin (N); expressed in transfected cells; host or cells: HEK293, transient transfection, vector pcDps
T2 sequence (Q96RJ0 1-339): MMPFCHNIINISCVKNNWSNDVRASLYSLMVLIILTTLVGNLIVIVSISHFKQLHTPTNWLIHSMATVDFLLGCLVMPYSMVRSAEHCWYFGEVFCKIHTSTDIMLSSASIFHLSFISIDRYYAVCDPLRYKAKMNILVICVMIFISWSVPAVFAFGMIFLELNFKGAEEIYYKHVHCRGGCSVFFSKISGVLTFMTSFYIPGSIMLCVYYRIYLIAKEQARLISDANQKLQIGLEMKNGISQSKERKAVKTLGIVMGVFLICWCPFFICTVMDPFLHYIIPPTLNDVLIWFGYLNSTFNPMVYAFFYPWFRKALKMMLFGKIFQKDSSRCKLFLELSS
Protocol: Figure 2 Functional characterization of hTAAR1 interacting with different trace amines. HEK293 cells transiently transfected with hTAAR1 and were incubated for 45 minutes with […] of PEA, OA and TYR. Basal signaling activity as well as activation of the Gs protein/adenylyl cyclase pathway was determined by AlphaScreen technology. Data represent mean ± SEM of cAMP accumulation after stimulation from 4–5 independent experiments performed in triplicates. […]. Data were analyzed using a paired one-tailed t-test.
Full length human TAAR1 (hTAAR1, NM_138327.1) was subcloned into the eukaryotic expression vector pcDps, N-terminally tagged with an hemagglutinin (5′ […] 3′) epitope via KpnI and SpeI restriction sites. For better cell surface expression hTAAR1 was additionally N-terminally fused with the first 20 amino acids of the bovine Rhodopsin [18], [33]. The human β1-adrenergic receptor (hADRB1, NM_000684.2)-pcDps construct cloned via KpnI/SpeI containing N-terminal (HA)-tag and C-terminal Flag-tag (5′ […] 3′).
Human embryonic kidney cells (HEK293) were cultured in Minimum Essential Medium (MEM) Earle's (Biochrom AG) supplemented with 10% FBS (PAA Laboratories GmbH), 100 U/ml penicillin, and 100 µg/ml streptomycin (Biochrom AG) and 2 mM L-glutamine (Invitrogen) at 37°C with 5% CO2. 48 well plates were coated with Poly-L-Lysine (Biochrom) and HEK293 cells were seeded with 37,500 cells per well. Transient transfection in triplicates with 84 ng DNA/well using metafectene according to manufactures instructions (Biontex, Munich, Germany) was performed 28 hours later. 40 hours after transfection cells were pre-incubated for 5 minutes with stimulation buffer containing of MEM Earle's media and 1 mM 3-isobutyl-1-methylxanthine (IBMX, Sigma). This stimulation buffer was used for all further steps. […]. Ligands were all purchased from Sigma, Munich. Controls were incubated with tyramine, β-phenylethylamine, octopamine or isoprenaline for 45 minutes. All reactions were performed at 37°C with 5% CO2 saturated air and stopped by aspirating medium. Cells were lysed at 4°C for 2 h on a shaking platform with cell lysis buffer containing […] HEPES, 0.1% BSA, 0.3% Tween20 and 1 mM IBMX.
as §3, with “vector). Dose response curves and bar graphs with mean ± SEM as well as statistical analysis (paired one-tailed t-test) were generated using GraphPad Prism Version 4.03.” for “vector).”
Supplementary file pone.0027073.s001.tif: Figure S1 Dose response curves of hTAAR1 agonists. […]. HEK293 transiently expressing hTAAR1 were stimulated with each trace amine in concentrations ranging 0.1 mM to 10 nM. Shown are dose response curves fold over basal means ± SEM from n≥4 independent experiments of measured cAMP in triplicates as described in Material and Methods. […]. Data were analyzed using paired one-tailed t-test tested against basal value of hTAAR1. (TIF) Click here for additional data file.

hADRB1 = target: T3, hADRB1 (Homo sapiens, UniProt P08588)
T3 construct: HA tag (N); expressed in transfected cells; host or cells: HEK293 (ATCC-LGC), transient transfection, vector pcDps
T3 sequence (P08588 whole entry): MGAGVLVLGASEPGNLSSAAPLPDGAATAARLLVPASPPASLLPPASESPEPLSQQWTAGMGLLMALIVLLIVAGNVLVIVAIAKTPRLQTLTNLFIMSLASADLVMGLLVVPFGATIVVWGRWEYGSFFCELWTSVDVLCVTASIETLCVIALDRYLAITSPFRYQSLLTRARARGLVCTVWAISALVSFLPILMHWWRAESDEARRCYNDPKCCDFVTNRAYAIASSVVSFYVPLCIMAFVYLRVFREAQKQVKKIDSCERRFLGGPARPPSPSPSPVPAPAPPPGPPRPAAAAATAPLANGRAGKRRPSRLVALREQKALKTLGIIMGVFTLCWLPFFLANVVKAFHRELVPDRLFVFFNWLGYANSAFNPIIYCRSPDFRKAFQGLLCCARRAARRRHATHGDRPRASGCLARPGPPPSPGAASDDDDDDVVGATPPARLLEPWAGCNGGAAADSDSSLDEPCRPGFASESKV
Protocol: as §1, §2
Human embryonic kidney cells (HEK293) were cultured in Minimum Essential Medium (MEM) Earle's (Biochrom AG) supplemented with 10% FBS (PAA Laboratories GmbH), 100 U/ml penicillin, and 100 µg/ml streptomycin (Biochrom AG) and 2 mM L-glutamine (Invitrogen) at 37°C with 5% CO2. […]
The competitive cyclic adenosine-monophosphate (cAMP) assay via Alphascreen (Perkin Elmer Life Science, Inc., Boston, MA) was carried out according to the manufacturers' protocol. […] Measurement of the plate was performed using Berthold Microplate Reader (Berthold Technologies GmbH & Co. KG). […]

[1] = ligand alone, 45 min, HEK293, cAMP, mean ± SEM
[2] = ligand alone, HEK293, cAMP accumulation, mean ± SEM, n≥3, read-out: EC50

| Structure (SMILES) | agonistic effect of the ligand alone (hADRB2) | effect on ISOP stimulation (hADRB2) | EC50 (hTAAR1) [µM] | Emax (hTAAR1) [nM] | activation of hTAAR1 (adenylyl cyclase stimulation, cAMP formation) (hTAAR1) | effect on ISOP stimulation (hADRB1) | agonistic effect of the ligand alone (hADRB1; ligand alone 6.7 nM to 6700 nM, 45 min) | activation of hTAAR1 (adenylyl cyclase stimulation, cAMP formation) (hTAAR1; HEK293, 45 min) | Emax (hTAAR1; [1]) [nM] | EC50 (hTAAR1; [2]) [µM] |
| --- | --- | --- | --- | --- | --- | --- | --- | --- | --- | --- |
| NCCc1ccc(O)cc1 [TYR, tyramine] | no agonistic effect | allosteric antagonist | 1.54 ± 0.251 | 219 ± 67 | activate hTAAR1 | – | – | – | – | – |
| NCCc1ccccc1 [PEA, β-phenylethylamine] | no agonistic effects | non-competitively antagonized | – | – | – | non-competitively antagonized | no agonistic effects | activate hTAAR1 | 403 ± 54 | 0.26 ± 0.016 |
| NCC(O)c1ccc(O)cc1 (centres unmarked) [OA, octopamine] | no agonistic effect | orthosteric antagonist | – | – | – | – | – | activate hTAAR1 | 172 ± 42 | 4.17 ± 1.47 |
